Experiments:
[1] = system: PYR/PYL receptors and the PP2C HAB1; experiment: Yeast two-hybrid agonist assay (screens and receptor sensitivity); assay type: cell-based, Arabidopsis; settings: 5 μM of test chemicals
Description: FIG. 1A-FIG. 1B. Novel ABA agonists bind to multiple PYR/PYL. (A) Chemical structure of naturally occurring (+)-ABA, its (−)analog and selected ABA agonists. (B) Yeast two-hybrid agonist assays of PYR/PYL receptor sensitivity to 5 μM of test chemicals. Specific PYR/PYL Receptors and the PP2C HAB1 are expressed as Ga14 BD or AD fusion proteins respectively, as described in the text.
A previously described yeast two-hybrid system was used in high throughput screens (HTS) to identify ABA agonists (see, Peterson F C, et al. (2010) Structural basis for selective activation of ABA receptors. Nature Structural & Molecular Biology 17(9):1109-1111). In this system the agonist promoted receptor-PP2C interaction drives expression of a URA3 or HIS3 reporter gene and rescues uracil or histidine auxotrophy of parental strains (Peterson F C, et al. (2010); Vidal M, Brachmann R K, Fattaey A, Harlow E, & Boeke J D (1996) Reverse two-hybrid and one-hybrid systems to detect dissociation of protein-protein and DNA-protein interactions. Proceedings of the National Academy of Sciences of the United States of America 93(19):10315-10320). […]

ABA-responsive genes [2] = experiment: Quantitative RT-PCR of ABA-responsive genes in Arabidopsis; assay type: in vivo; settings: for Induction of MAPKKK18, RD29A and RD29B mRNAs: Col and Ler ecotypes and pyr1, pyl1, pyl2, pyl3, pyl4 single mutants; for Expression of ABF3, GBF3, NCED3 and RD29A: Col wild-type plants; for Expression of RD29B and MAPKKK18 mRNA: wild-type plants
Description: (§1) FIG. 9A-FIG. 9D. LC66C6 induces numerous ABA-responsive genes. […] Ten-day old seedlings were treated with carrier solvent (DMSO) or either 25 μM ABA, pyrabactin or LC66C6 for 8 hours. Total RNA was then prepared labeled and hybridized to ATH1 microarrays. Data plotted are log 2 transformed average expression values for ˜13K probes that were detectable across all experiments. Data shown are averages determined from triplicate biological replicates. (C) and (D) show the expression of a reporter gene in different plant tissues after treatment with vehicle (DMSO), pyrabactin, LC66C6, or (+)-ABA.
FIG. 10. ABA-responsive gene expression in PYR/PYL single mutants. The response of the ABA-responsive MAPKKK18, RD29A, and RD29B mRNAs to LC66C6, ABA and pyrabactin were characterized in the Col and Ler ecotypes and the pyr1, pyl1, ply2, pyl3 and pyl4 single mutant genotypes.
FIG. 11. LC66C6 induces ABA-responsive gene expression in wild-type plants, abi1-1 and PYR/PYL quadruple mutants.
Total RNA was isolated using Plant RNA purification reagent (Invitrogen, USA) according to the manufacturer's instructions. cDNA was synthesized from 1 μg of total RNA using the QantiTec reverse transcription kit (Qiagen, USA). Real-time PCR using Maxima® SYBR Green/Fluorescein qPCR Master Mix (Fermentas) was performed with the iQ5 real-time PCR detection system (Bio-Rad, Hercules, Calif.). The relative amounts of target mRNAs were determined using the relative standard curve method and were normalized by relative amount of internal control mRNA. Biological triplicate experiments were performed.

ABA-responsive genes [3] = experiment: ATH1 microarray analysis; assay type: in vivo, Arabidopsis; settings: wild-type seedlings; 25 μM
Description: as §1
Total RNA was isolated using RNAeasy Plant Mini Kit (Qiagen, USA) according to the manufacturer's instructions. cDNA synthesis, labeling and hybridization to the Arabidopsis ATH1 chips (Affymetrix, USA) were performed by the IIGB Core Instrumentation Facility of University of California at Riverside using Affymetrix protocols. Biological triplicate samples were hybridized for DMSO controls, ABA, pyrabactin and quinabactin treatments; compound were applied at 25 μM final concentration and RNA prepared from frozen tissue after 6 hours exposure to compounds or controls. Expression signals for probe sets were calculated and normalized by MASS Statistical Algorithm (Affymetrix, USA). Experimental filtering of array data was performed for the presence of signal in all experiments. […]

Row | Compound | Agonist activity and receptor selectivity in yeast two-hybrid assay [1] | Induction of MAPKKK18, RD29A and RD29B mRNAs (ABA-responsive genes [2]) | Expression of ABF3, GBF3, NCED3 and RD29A (ABA-responsive genes [2]) | Expression of RD29B and MAPKKK18 mRNA (ABA-responsive genes [2]) | Genome-wide expression pattern compared with ABA (ABA-responsive genes [3])
1 | CCCN1C(=O)CCc2cc(NS(=O)(=O)Cc3ccc(C)cc3)ccc21 [LC66C6] | agonist of multiple PYR/PYL receptors | induced | induced expression of ABF3, GBF3, NCED3, and RD29A in a dose dependent manner | induced the expression of RD29B and MAPKKK18 mRNA in a dose dependent manner in wild-type plants | induces a similar set of genes to those induced by ABA
2 | O=S(=O)(NCc1ccccn1)c1ccc(Br)c2ccccc12 [pyrabactin, reference compound] | much greater receptor selectivity than ABA or the new agonist LC66C6 | did not significantly induce expression | did not induce significant expression | did not induce gene expression in wild-type plants | did not induce an expression pattern similar to that of ABA

Reference: patent publication US20160280651A1, “COMPOUNDS THAT INDUCE ABA RESPONSES” (THE REGENTS OF THE UNIVERSITY OF CALIFORNIA, priority 2013, published 2016)
